For 13 molecules, IC50 and MIC results are on record in ChEMBL document CHEMBL1152397, “Cytotoxic and antimycobacterial prenylated flavonoids from the roots of Eriosema chinense” (J Nat Prod, 2009).

For assay [1], the system named is KB. Briefly: Cytotoxicity against human KB cells by sulforhodamine B assay. The class given is functional, cell-based. (In general: In SRB staining, fixed cells bind dye roughly in proportion to their protein.)
Assay [2] has as its system NCI-H187. Nature of the assay: Cytotoxicity against human NCI-H187 cells by sulforhodamine B assay. The class given is functional, cell-based.
Assay [3] has as its system Mycobacterium tuberculosis. Nature of the assay: Antimycobacterial activity against Mycobacterium tuberculosis H37Ra after […] by microplate alamar Blue assay. Type of assay: functional. Background: Alamar Blue is a resazurin reagent that responds to reducing activity.
Assay [4] relates to Vero. Nature of the assay: Cytotoxicity against african green monkey Vero cells by sulforhodamine B assay. Type of assay: cell-based. The note with it: Chlorocebus sabaeus.

≈ marks a conversion by molar mass, not a printed value.

As usually defined, the IC50 is the concentration needed to halve the response being measured. As a reminder, the MIC is the lowest concentration found to suppress growth. Consider `CC(C)=CCc1c2c(c(O)c3c(=O)c(O)c(-c4ccc(O)cc4)oc13)C=CC(C)(C)O2` [DEHYDROLUPINIFOLINOL], for which the IC50 in assay [1] is 5.8 µg/mL (≈ 13.8 µM); in assay [2] it was 3.9 µg/mL (≈ 9.28 µM); in assay [4] it was 11.1 µg/mL (≈ 26.4 µM). The molecule also showed an MIC in assay [3] of 12.5 µg/mL (≈ 29.7 µM).
Take `COc1cccc2c1C(=O)c1c(O)c3c(c(O)c1C2=O)C[C@@](O)(C(=O)CO)C[C@@H]3O[C@H]1C[C@H](N)[C@H](O)[C@H](C)O1` [DOXORUBICIN]: the IC50 in assay [1] came out at 0.12 µg/mL (≈ 0.221 µM); in assay [2] it was 0.042 µg/mL (≈ 0.0773 µM).
On the same counts, the results for `Cc1c2ccncc2c(C)c2c1[nH]c1ccccc12` [ELLIPTECINE] are 0.37 µg/mL (≈ 1.5 µM) and 0.44 µg/mL (≈ 1.79 µM).
With `CC(C)=CCc1c(O)c2c(c3c1OC(C)(C)C=C3)O[C@H](c1ccc(O)cc1O)CC2=O` [ERIOSEMAONE A], the half-inhibitory concentration (IC50) came out at 5.8 µg/mL (≈ 13.7 µM) in assay [1] and 6 µg/mL (≈ 14.2 µM) in assay [2]. The MIC in assay [3] stood at 12.5 µg/mL (≈ 29.6 µM).
On the same counts, the results for `CC(C)=CCc1c2c(c(O)c3c1O[C@H](c1ccc(O)cc1O)CC3=O)C=CC(C)(C)O2` [FLEMICHIN D] are 3.3 µg/mL (≈ 7.81 µM), 2.1 µg/mL (≈ 4.97 µM) and 12.5 µg/mL (≈ 29.6 µM).
The molecule `NNC(=O)c1ccncc1` [ISONIAZID] gave a minimal inhibitory concentration (MIC) in assay [3] of 0.023 µg/mL (≈ 0.168 µM).
With `COc1ccc([C@H]2Oc3c(CC=C(C)C)c4c(c(O)c3C(=O)[C@@H]2O)C=CC(C)(C)O4)cc1` [KHONKLONGINOL A], the half-maximal inhibitory concentration (IC50) came to 3.1 µg/mL (≈ 7.1 µM) in assay [1], 3 µg/mL (≈ 6.87 µM) in assay [2] and 7.9 µg/mL (≈ 18.1 µM) in assay [4]. For the same molecule, inhibition of growth in assay [3] (MIC) required 25 µg/mL (≈ 57.3 µM).
On the same counts, the results for `COc1ccc([C@H]2Oc3c(CC=C(C)C)c4c(c(O)c3C(=O)[C@H]2O)C=CC(C)(C)O4)cc1` [KHONKLONGINOL B] are 3.8 µg/mL (≈ 8.71 µM), 4.3 µg/mL (≈ 9.85 µM), 6.9 µg/mL (≈ 15.8 µM) and 50 µg/mL (≈ 115 µM).
On the same counts, the results for `COc1ccc(-c2oc3c(CC=C(C)C)c4c(c(O)c3c(=O)c2O)C=CC(C)(C)O4)cc1` [KHONKLONGINOL F] are 6.7 µg/mL (≈ 15.4 µM), 2.4 µg/mL (≈ 5.52 µM), 7 µg/mL (≈ 16.1 µM) and 100 µg/mL (≈ 230 µM).
On the same counts, the results for `COc1ccc([C@@H]2CC(=O)c3c(O)c4c(c(CC=C(C)C)c3O2)OC(C)(C)C=C4)c(O)c1` [KHONKLONGINOL H] are 5.4 µg/mL (≈ 12.4 µM), 3.3 µg/mL (≈ 7.56 µM), 6.4 µg/mL (≈ 14.7 µM) and 25 µg/mL (≈ 57.3 µM).
`CC(C)=CCc1c2c(c(O)c3c1O[C@H](c1ccc(O)cc1)[C@@H](O)C3=O)C=CC(C)(C)O2` [LUPINIFOLINOL]: the half-maximal inhibitory concentration (IC50) in assay [1] was 1.73 µg/mL (≈ 4.09 µM); in assay [2], 3.5 µg/mL (≈ 8.28 µM). This molecule also registered an MIC in assay [3] of 25 µg/mL (≈ 59.2 µM).
On the same counts, the results for `CC(C)=CCc1c2c(c(O)c3c1O[C@H](c1ccc(O)cc1)CC3=O)C=CC(C)(C)O2` [LUPINIFOLIN] are 2.4 µg/mL (≈ 5.9 µM), 6.5 µg/mL (≈ 16 µM) and 12.5 µg/mL (≈ 30.8 µM).
Take `CN[C@@H]1[C@H](O[C@H]2[C@H](O[C@H]3[C@H](O)[C@@H](O)[C@H](N=C(N)N)[C@@H](O)[C@@H]3N=C(N)N)O[C@@H](C)[C@]2(O)C=O)O[C@@H](CO)[C@H](O)[C@H]1O` [STREPTOMYCIN]: it took 0.156 µg/mL (≈ 0.268 µM) to inhibit growth in assay [3] (MIC).
